Patent US20030007993A1, “biomedical devices with antimicrobial cationic peptide and protein coatings” (priority 2000, published 2003)
No end group written: not given here.

B1: Secretory leukocyte protease inhibitor (protein, UniProt P03973 26-132, looked up)
Antileukoproteinase: SGKSFKAGVCPPKKSAQCLRYKKPECQSDWQCPGKKRCCPDTCGIKCLDPVDTPNPTRRKPGKCPVTYGQCLMLNPPNFCEMDGQCKRDLKCCMGMCGKSCVSPVKA
notes: cationic protein, source human

Legend:
P. aeruginosa 6294 = assay: bacterial adhesion (total counts) and viable counts on coated etafilcon A lenses; assay type: cell-based, Pseudomonas aeruginosa; set-up: key to Reduction v. control* / Reduction v. total**: “—” indicates no reduction in adhesion; settings: for Reduction v. control* / Reduction v. total**: strain 6294
Description: (§1) For conducting total counts, etafilcon A lenses were removed from the manufacturers vials, washed three times in 1 ml PBS and then coated with various concentrations of cationic proteins/peptides overnight at 37° C. either individually or in combination. After incubation, the lenses were washed three times in PBS and 0.5 ml of 1×10^8 bacterial cells/ml was added to the lenses. After incubation at ambient temperature for 10 min, the lenses were washed three times in PBS to remove non-adherent or loosely adherent bacteria and stained with crystal violet for 1 min. The number of cells per lens was examined under the microscope. Five grids (0.005625 mm^2) per lens were counted and triplicate lenses for each treatment were assayed.
(§2) For conducting viable counts, etafilcon A lenses were removed from the manufacturers vials, washed three times in 1 ml PBS and then coated with various concentrations of cationic proteins/peptides overnight at 37° C. (either individually or in combination). After incubation, the lenses were washed three times in PBS and 0.5 ml of 1×10^8 bacterial cells/ml was added to the lenses. After incubation at ambient temperature for 10 min, the lenses were washed three times in PBS to remove non-adherent or loosely adherent bacteria. Lenses were then homogenized using 1 ml PBS and a small magnetic stirring bar (octagonal cross-section, 0.5″×0.125″) and stirred at maximum speed for one hour which was sufficient for lens disintegration. Serial dilutions were then made according to the technique of Miles and Misra and aliquots (20 μL) plated out on nutrient agar. After incubation overnight at 37° C., viable bacteria were determined and results expressed as colony forming units/mm^2 after calculation of the surface area of the lens (approximately 310 mm^2).
(§3) The lenses were incubated in concentrations of cationic proteins/peptides that were either effective in solution or the highest concentration available if there was no effect in solution. After rinsing, bacteria were added and numbers of cells analyzed as the total cells per mm^2 of the lens or the number of viable cells per mm^2 of the lens.

S. aureus 31 = assay: as above; assay type: cell-based, Staphylococcus aureus; set-up: key to Reduction v. control* / Reduction v. total**: “—” indicates no reduction in adhesion; settings: for Reduction v. control* / Reduction v. total**: strain Saur 31; for Reduction v. control*: coated etafilcon A lens compared to adhesion control lens not coated; for Reduction v. total**: compared to the number of total bacterial cells adhered to coated lens (growth of adhered bacteria)
Description: as §1, §2, §3

bacteria = assay: surface coatings: adherence and growth of bacteria on the device (summary statements); assay type: cell-based; settings: coated lenses, in words; for viability of adhered cells: compared to the cells adhered to the uncoated lens
Description: as §1, §2, §3

[1] = tested on: Pseudomonas aeruginosa 6294; assay: growth of bacteria in solution with cationic proteins/peptides (slow growing in PBS, rapid growing in TSB); assay type: cell-based
Description: (§4) To assess the effect of the cationic proteins/peptides in solution against rapid growing bacterial cells, bacteria were cultured in Trypticase soy broth (“TSB”) overnight at 35° C. Aliquots (20 μl) of this cell suspension were then added to fresh TSB (10 ml). Different concentrations of the cationic proteins/peptides were added to the fresh broth and incubated for up to 48 h at 35° C. Samples were taken at different time points and the optical density at 660 nm measured as a measure of changes in bacterial numbers was measured.
(§5) To assess the effect of the cationic proteins/peptides in solution against slow growing bacterial cells, cells were grown as previously in TSB. The cells were then harvested by centrifugation and washed in phosphate buffered saline (PBS; NaCl 8 g/l; KCl 0.2 g/l; Na2HPO4 1.15 g/l; KH2PO4 0.2 g/l). The cells were then re-suspended to OD 0.1 (unless otherwise stated) at 660 nm in PBS, different concentrations of cationic proteins/peptides were added and incubated for up to 48 h at 35° C. Samples were taken a different points and numbers of bacteria analyzed using the Miles and Misra technique (i.e. numbers that are viable after plating dilutions onto nutrient agar plates).
(§6) The results obtained in solution for all cationic proteins and peptides studied are shown on Table 3. Most protein/peptides were screened against only P. aeruginosa 6294 and S. aureus 31.
(§7) In Table 3, slow growing cells are those re-suspended in PBS with cationic protein/peptide and rapid growing are those re-suspended in TSB plus cationic protein/peptide. The numbers in μg/ml are in concentration showing peak activity. A “−” sign indicates no reduction in bacterial growth, a “+” sign indicates a 1 to 50% reduction in growth, a “++” sign indicates a 51 to 89% reduction in growth, a “+++” sign indicates a 90 to 98% reduction in growth a “++++” sign indicates a greater than 98% reduction in growth.

[2] = tested on: Pseudomonas aeruginosa 6206; assay: as above; assay type: cell-based; set-up: key: A “−” sign indicates no reduction in bacterial growth; —: A “−” sign indicates no reduction in bacterial growth; a “+” sign indicates a 1 to 50% reduction in growth; a “++” sign indicates a 51 to 89% reduction in growth; a “+++” sign indicates a 90 to 98% reduction in growth; a “++++” sign indicates a greater than 98% reduction in growth
Description: as §4, §5, §6, §7

Serratia marcesens Smar5 = assay: as above; assay type: cell-based; set-up: key: A “−” sign indicates no reduction in bacterial growth; —: A “−” sign indicates no reduction in bacterial growth; a “+” sign indicates a 1 to 50% reduction in growth; a “++” sign indicates a 51 to 89% reduction in growth; a “+++” sign indicates a 90 to 98% reduction in growth; a “++++” sign indicates a greater than 98% reduction in growth; settings: Smar 5
Description: as §4, §5, §6, §7

[3] = tested on: Staphylococcus intermedius Sint 2; assay: as above; assay type: cell-based; set-up: key: A “−” sign indicates no reduction in bacterial growth; —: A “−” sign indicates no reduction in bacterial growth; a “+” sign indicates a 1 to 50% reduction in growth; a “++” sign indicates a 51 to 89% reduction in growth; a “+++” sign indicates a 90 to 98% reduction in growth; a “++++” sign indicates a greater than 98% reduction in growth
Description: as §4, §5, §6, §7

[4] = tested on: gram-positive and gram-negative bacteria; assay: growth of bacteria in solution (summary statement); assay type: cell-based; settings: in words
Description: as §4, §5, §6

[5] = tested on: Pseudomonas aeruginosa Paer1; assay: growth of bacteria in solution with cationic proteins/peptides (slow growing in PBS, rapid growing in TSB); assay type: cell-based; settings: Paer 1; 24 h, 15 μg/ml slow growing
Description: as §4, §5, §6, §7

[6] = tested on: Staphylococcus aureus Saur31; assay: as above; assay type: cell-based; settings: Saur 31
Description: as §4, §5, §6, §7

[7] = coated etafilcon A lens compared to adhesion control lens not coated
[8] = compared to the number of total bacterial cells adhered to coated lens (growth of adhered bacteria)
[9] = slow growing (PBS), 125-1000 μg/ml

Molecule	Reduction v. control* (P. aeruginosa 6294; [7])	Reduction v. total** (P. aeruginosa 6294; [8])	Reduction v. control* (S. aureus 31)	Reduction v. total** (S. aureus 31)	also measured
Cecropin P1	—	—	—	—	
Cecropin A	—	93%	—	—	viability of adhered cells (bacteria): significant reduction in the viability; total adhesion of bacteria (bacteria): did not reduce the total adhesion
Transferrin					Reduction v. control* (P. aeruginosa 6294; 125 μg/ml, compared to adhesion control lens not coated): —; Reduction v. total** (P. aeruginosa 6294; 125 μg/ml, compared to total bacterial cells adhered to coated lens): —
Nisin			—	50%	reduction in bacterial growth ([1]; 2 μg/ml): ++(2 μg/ml) (a “++” sign indicates a 51 to 89% reduction in growth); viability of adhered cells (bacteria): significant reduction in the viability; total adhesion of bacteria (bacteria): did not reduce the total adhesion
Defensin HNP-1	—	—	—	—	reduction in bacterial growth ([1]; 2 μg/ml): +(2 μg/ml) (a “+” sign indicates a 1 to 50% reduction in growth)
Protamine	80%	80%	—	—	reduction in bacterial growth [2, 9]: ++++(slow (a “++++” sign indicates a greater than 98% reduction in growth); reduction in bacterial growth (Serratia marcesens Smar5; 1000 μg/ml slow growing): ++++(1000 (a “++++” sign indicates a greater than 98% reduction in growth); reduction in bacterial growth (Serratia marcesens Smar5; <1000 μg/ml slow growing): −(<1000; reduction in bacterial growth ([3]; rapid growing (TSB), 125-1000 μg/ml): −(rapid; reduction in bacterial growth [3, 9]: ++++ (slow (a “++++” sign indicates a greater than 98% reduction in growth); viability of the cells on the coated lenses (P. aeruginosa 6294; P. aeruginosa 6294, in words): reduced the viability; adhesion of P. aeruginosa 6294 to the lenses (P. aeruginosa 6294; coated lenses, in words): significantly reduced the adhesion; preventing the growth of gram-positive and gram-negative bacteria in solution [4]: most efficacious
β Defensin 1 (DHYNCVSSGGQCLYSACPIFTKIQGTCYRGKAKCCK; ends and bridges not checked; cysteine pairing not given here; UniProt P60022 33-68, looked up) [cationic peptide, source human]	—	—	—	—	reduction in bacterial growth ([1]; 24h, 60 μg/ml): ++(24h, (a “++” sign indicates a 51 to 89% reduction in growth)
Melittin	70%		60%		reduction in bacterial growth ([1]; 24 h, 15 μg/ml slow growing): ++(24 h, (a “++” sign indicates a 51 to 89% reduction in growth); reduction in bacterial growth [5]: ++++(24 h, (a “++++” sign indicates a greater than 98% reduction in growth); reduction in bacterial growth ([6]; 15 μg/ml rapid growing): ++++ (a “++++” sign indicates a greater than 98% reduction in growth); reduction in bacterial growth ([6]; 24 h, 15 μg/ml slow growing): ++++(24 h, (a “++++” sign indicates a greater than 98% reduction in growth); reduction in bacterial growth (Serratia marcesens Smar5; growth state not given, 15 μg/ml): —; reduction in bacterial growth ([3]; 24 h, 15 μg/ml rapid growing): ++++(24 h, (a “++++” sign indicates a greater than 98% reduction in growth); reduction in bacterial growth ([3]; 24 h, 15 μg/ml slow growing): ++++(24 h, (a “++++” sign indicates a greater than 98% reduction in growth); initial adhesion of S. aureus 31 (S. aureus 31; coated lenses, in words): reduced initial adhesion; preventing the growth of gram-positive and gram-negative bacteria in solution [4]: most efficacious
Melittin-1-13 AA	—	—	—	—	reduction in bacterial growth ([1]; 24h, 1000 μg/ml): ++(24h, (a “++” sign indicates a 51 to 89% reduction in growth); reduction in bacterial growth ([6]; 48h, 24h, 1000 μg/ml): ++(48h, (a “++” sign indicates a 51 to 89% reduction in growth)
Magainin 1 (GIGKFLHSAGKFGKAFVGEIMKS; Magainin-1; UniProt P11006 37-59, looked up) [cationic peptide, source frog]	—	—	—	—	
Magainin 2	—	—	—	—	reduction in bacterial growth ([1]; 24 h, 400 μg/ml, slow growing): +++(24 h, (a “+++” sign indicates a 90 to 98% reduction in growth)
B1	—	—	—	—	reduction in bacterial growth ([2]; growth state not given, 10-100 μg/ml): —
